From patent publication US20080090805A1, “CB-1 MODULATING COMPOUNDS AND THEIR USE” (ACADIA PHARMACEUTICALS INC., priority 2005, published 2008)
Read-outs that look alike come from different tables or passages of the source.

Target: CB1 (mutant) (Homo sapiens, UniProt P21554)
Test: R-SAT functional receptor assay, CB1 (mutant, truncated after amino acid 417)
Assay type: cell-based
Details: R-SAT CB1; for IC50 / pIC50: receptor form (mutant or wild-type) not stated; for Emax / % Inhibition: receptor form not stated, relative to SR141716 (100%)
[1] = Appendix A, read-out: pIC50 (converted)
[2] = Appendix A, read-out: % Inhibition
[3] = read-out: % Inhibition, Appendix A

Sequence of CB1 (mutant) (P21554 1-417, change not shown): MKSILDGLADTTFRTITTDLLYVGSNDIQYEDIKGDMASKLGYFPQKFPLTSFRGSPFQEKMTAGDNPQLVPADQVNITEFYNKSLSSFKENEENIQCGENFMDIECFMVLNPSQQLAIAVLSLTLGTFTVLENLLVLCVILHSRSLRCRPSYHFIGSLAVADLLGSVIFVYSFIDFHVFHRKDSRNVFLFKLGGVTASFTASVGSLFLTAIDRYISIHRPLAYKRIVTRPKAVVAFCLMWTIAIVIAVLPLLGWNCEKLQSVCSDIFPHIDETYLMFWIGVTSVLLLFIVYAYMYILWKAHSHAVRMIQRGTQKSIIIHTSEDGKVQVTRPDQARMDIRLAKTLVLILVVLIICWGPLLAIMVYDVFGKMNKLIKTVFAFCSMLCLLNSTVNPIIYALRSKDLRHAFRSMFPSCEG

Row | Compound | IC50 [1] [nM] | Emax [2] [%] | other results
1 | O=C(NN1CCCCC1)c1ccc2c(c1)N=C(c1ccccc1)c1ccccc1S2 [drawing 897] | 15.8 | 115 | –
2 | O=C(NOc1cccc(Cl)c1)c1ccc2c(c1)N=C(C1CCCCC1)c1cc(F)ccc1S2 | 39.8 | 100 | –
3 | CCCC1=Nc2cc(C(=O)NCCCN(C)C3CCCCC3)ccc2Sc2ccccc21 | – | 120 | –
4 | O=C(NN1CCCCCC1)c1ccc2c(c1)N=C(c1ccc(F)cc1)c1ccccc1S2 [drawing 1009] | 25.1 | 92 | –
5 | CCCCN(C)C(=O)c1ccc2c(c1)N=C(c1ncccc1C)c1ccccc1S2 | – | 14 | pIC50 (Appendix A): 1.0
6 | CCCCNC(=O)c1ccc2c(c1)N=C(c1ccc(Cl)s1)c1ccccc1S2 [drawing 633] | 5.01 | 92 | –
7 | CCCNC(=O)c1ccc2c(c1)N=C(c1ccccc1Cl)c1ccccc1S2 | 79.4 | 78 | –
8 | O=C(NCc1ccccc1Br)c1ccc2c(c1)N=C(N1CCCCC1)c1ccccc1S2 [drawing 890] | 200 | 62 | –
9 | O=C(Cc1ccccc1)NNC(=O)c1ccc2c(c1)N=C(N1CCCCC1)c1ccccc1S2 | 200 | 69 | –
10 | CONC(=O)c1ccc2c(c1)N=C(c1ccc(F)cc1)c1ccccc1S2 | 501 | 65 | –
11 | CCCCNC(=O)c1cc2c(cc1C)Sc1ccccc1C(c1ccc(Cl)cc1)=N2 [drawing 630] | – | 94 | IC50 (pIC50, Appendix A): 63.1 nM
12 | O=C(NN1CCCCC1)c1ccc2c(c1)N=C(c1ccc(Cl)c(Cl)c1)c1ccccc1S2 [drawing 989] | 25.1 | 105 | –
13 | O=C(NCCc1ccccc1)c1ccc2c(c1)N=C(c1ccccc1)c1ccccc1S2 [drawing 1023] | 25.1 | 106 | –
14 | O=C(NCCc1ccc(Cl)cc1)c1ccc2c(c1)N=C(c1ccccc1)c1ccccc1S2 [drawing 733] | 7.94 | 108 | –
15 | O=C(NCCc1ccncc1)c1ccc2c(c1)N=C(c1ccccn1)c1ccccc1S2 | 251 | 51 | –
16 | CCCC1=Nc2cc(C(=O)N3CCC(N4CCCCC4)CC3)ccc2Sc2ccccc21 | 2510 | 128 | –
17 | CCCC1=Nc2cc(C(=O)NCCN(CC)c3ccccc3)ccc2Sc2ccccc21 [drawing 885] | 15.8 | 106 | –
18 | O=C(NCCC(F)(F)F)c1ccc2c(c1)N=C(c1cccc(Cl)c1)c1ccccc1S2 [drawing 549] | 1.58 | 96 | –
19 | O=C(NC1CCC(F)(F)CC1)c1ccc2c(c1)N=C(c1ccccn1)c1ccccc1S2 [drawing 564] | 50.1 | 79 | –
20 | O=C(NN1CCCCCC1)c1ccc2c(c1)N=C(c1cccc(Cl)c1)c1ccccc1S2 [drawing 721] | 7.94 | – | % Inhibition (Appendix A): 105%
21 | CCCCNC(=O)c1ccc2c(c1)N=C(c1ccccc1F)c1ccccc1S2 [drawing 1129] | 39.8 | 96 | –
22 | CCCCN(C)C(=O)c1ccc2c(c1)N=C(c1ccccc1Cl)c1ccccc1S2 | – | 40 | –
23 | CCCCN(C)C(=O)c1ccc2c(c1)N=C(c1ccc(F)cc1)c1ccccc1S2 | 31.6 | 107 | –
24 | O=C(NCCC(F)(F)F)c1ccc2c(c1)N=C(c1cccc(F)c1)c1ccccc1S2 [drawing 625] | 5.01 | 85 | –

Row | Compound | IC50 [1] [nM] | Emax [2] [%] | other results
25 | Cc1ccsc1C1=Nc2cc(C(=O)NCc3cccs3)ccc2Sc2ccccc21 [drawing 685] | 6.31 | 114 | –
26 | CC(C)CCNC(=O)c1ccc2c(c1)N=C(c1ccccc1F)c1ccccc1S2 [drawing 1067] | 31.6 | 117 | –
27 | O=C(NCc1ccccc1)c1ccc2c(c1)N=C(c1ccc(Cl)cc1)c1ccccc1S2 [drawing 647] | 5.01 | 105 | –
28 | O=C(NN1CCCCC1)c1ccc2c(c1)N=C(C1CCCCC1)c1ccccc1S2 [drawing 744] | – | – | Emax [3]: 86%
29 | O=C(NN1CCCCC1)c1ccc2c(c1)N=C(c1cccc(F)c1)c1ccccc1S2 [drawing 929] | – | 111 | IC50 (pIC50, Appendix A): 15.8 nM
30 | O=C(NN1CCCCCC1)c1ccc2c(c1)N=C(c1ccc(Cl)cc1)c1ccccc1S2 [drawing 1041] | 31.6 | – | % Inhibition (Appendix A): 96%
31 | O=C(NCCc1ccccn1)c1ccc2c(c1)N=C(c1ccc(Br)cc1)c1ccccc1S2 [drawing 734] | 79.4 | 89 | –
32 | CCCC1=Nc2cc(C(=O)NC(C)CCN(C)C(=O)OCC)ccc2Sc2ccc(C)cc21 (centres unmarked) | 1000 | 79 | –
33 | Cc1cccnc1C1=Nc2cc(C(=O)NCc3cccs3)ccc2Sc2ccccc21 | 100 | 97 | –
34 | Cc1ccsc1C1=Nc2cc(C(=O)NCCC(F)(F)F)ccc2Sc2ccccc21 [drawing 1047] | 31.6 | 101 | –
35 | CC(C)CNC(=O)c1ccc2c(c1)N=C(c1ccc(Br)cc1)c1ccccc1S2 [drawing 781] | – | 80 | IC50 (pIC50, Appendix A): 10 nM
36 | NS(=O)(=O)c1ccc(CNC(=O)c2ccc3c(c2)N=C(NCc2ccc(Cl)cc2)c2ccccc2S3)cc1 | 1580 | 41 | –
37 | O=C(NCc1cccs1)c1ccc2c(c1)N=C(c1ccc(F)cc1)c1ccccc1S2 [drawing 571] | 2.51 | 97 | –
38 | O=C(NN1CCOCC1)c1ccc2c(c1)N=C(c1cccc(F)c1)c1ccccc1S2 | 200 | 63 | –
39 | C[C@@H]1CCC[C@H](C)N1NC(=O)c1ccc2c(c1)N=C(c1ccccc1F)c1ccccc1S2 [drawing 1149] | 39.8 | 103 | –
40 | O=C(NCc1cccc(Cl)c1)c1ccc2c(c1)N=C(c1ccc(F)cc1)c1ccccc1S2 [drawing 701] | 7.94 | 103 | –
41 | Cc1ccc(CNC(=O)c2ccc3c(c2)N=C(c2cccc(F)c2)c2ccccc2S3)o1 [drawing 947] | – | 69 | IC50 (pIC50, Appendix A): 20 nM
42 | CC(C)NC(=O)c1ccc2c(c1)N=C(c1ccc(Cl)cc1F)c1ccccc1S2 [drawing 664] | 63.1 | 101 | –
43 | O=C(NN1CCCCCC1)c1ccc2c(c1)N=C(c1cccc(Cl)c1)c1ccccc1S2 [drawing 597] | 3.98 | 95 | –
44 | CCCC1=Nc2cc(C(=O)NC)ccc2Sc2ccccc21 | 501 | 119 | –
45 | O=C(NCc1ccccc1Br)c1ccc2c(c1)N=C(C1CCCCC1)c1ccccc1S2 [drawing 548] | 39.8 | 85 | –
46 | COCCNC(=O)c1ccc2c(c1)N=C(c1ccc(Cl)cc1Cl)c1ccccc1S2 | 316 | 69 | –
47 | O=C(NCc1ccncc1)c1ccc2c(c1)N=C(c1cccc(Br)c1)c1ccccc1S2 [drawing 977] | 20 | 95 | –
48 | CC(C)CNC(=O)c1ccc2c(c1)N=C(c1ccc(Cl)s1)c1ccccc1S2 [drawing 551] | – | – | pIC50 (Appendix A): 8.7

Row | Compound | IC50 [1] [nM] | Emax [2] [%] | other results
49 | O=C(NCCc1cccnc1)c1ccc2c(c1)N=C(c1ccc(Cl)s1)c1ccccc1S2 [drawing 1029] | 25.1 | 110 | –
50 | O=C(NN1CCCCC1)c1ccc2c(c1)N=C(c1ccc(Cl)cn1)c1ccccc1S2 [drawing 959] | 20 | 112 | –
51 | O=C(NCc1ccccc1)c1ccc2c(c1)N=C(c1cccc(Cl)c1)c1ccccc1S2 [drawing 717] | 7.94 | 106 | –
52 | CCCCN(C)C(=O)c1ccc2c(c1)N=C(c1ccccc1F)c1ccccc1S2 | 251 | 77 | –
53 | CCCCNC(=O)c1ccc2c(c1)N=C(c1ccc(Cl)c(Cl)c1)c1ccccc1S2 [drawing 665] | – | – | Emax [3]: 109%
54 | O=C(NCc1cccc(Cl)c1)c1ccc2c(c1)N=C(c1cccc(Cl)c1)c1cc(F)ccc1S2 [drawing 651] | 5.01 | 107 | –
55 | O=C(NCCc1ccncc1)c1ccc2c(c1)N=C(c1ccc(Cl)c(Cl)c1)c1ccccc1S2 [drawing 1095] | 31.6 | 119 | –
56 | COc1ccc(C2=Nc3cc(C(=O)NC(C)C)ccc3Sc3ccccc32)cc1 [drawing 780] | 100 | 84 | –
57 | O=C(NC1CCCCNC1=O)c1ccc2c(c1)N=C(c1ccc(Cl)cc1)c1ccccc1S2 (centres unmarked) | 100 | 81 | –
58 | O=C(NN1CCCCCC1)c1ccc2c(c1)N=C(c1ccc(Cl)cc1)c1ccccc1S2 [drawing 624] | 63.1 | 103 | –
59 | O=C(NCc1ccncc1)c1ccc2c(c1)N=C(NCc1ccc(Cl)cc1)c1ccccc1S2 | 794 | 56 | –
60 | CC(CNC(=O)c1ccc2c(c1)N=C(c1cccc(Cl)c1)c1cc(F)ccc1S2)c1ccccc1 (centres unmarked) [drawing 879] | 15.8 | 113 | –
61 | CC(C)NC(=O)c1ccc2c(c1)N=C(c1ccc(Cl)cc1Cl)c1ccccc1S2 | – | 45 | –
62 | Cc1ccc(CNC(=O)c2ccc3c(c2)N=C(c2ccc(F)cc2)c2ccccc2S3)o1 [drawing 577] | 3.16 | 65 | –
63 | N#Cc1ccc(C2=Nc3cc(C(=O)NNCc4ccccc4)ccc3Sc3ccccc32)cc1 [drawing 1174] | – | 58 | –
64 | CCCC1=Nc2cc(C(=O)NCCN(C)C3CCCCC3)ccc2Sc2ccccc21 | 2000 | 123 | –
65 | COCCNC(=O)c1ccc2c(c1)N=C(c1ccccc1F)c1ccccc1S2 | 100 | 99 | –
66 | CCCC1=Nc2cc(C(=O)NCCCN3CCC(Cc4ccccc4)CC3)ccc2Sc2ccccc21 | – | 115 | –
67 | CCOCCNC(=O)c1ccc2c(c1)N=C(c1cccc(Br)c1)c1ccccc1S2 [drawing 789] | 10 | 119 | –
68 | CCCCNC(=O)c1ccc2c(c1)N=C(N1CCCCC1)c1ccccc1S2 [drawing 683] | 6.31 | 99 | –
69 | O=C(NCc1ccco1)c1ccc2c(c1)N=C(c1ccccc1F)c1ccccc1S2 [drawing 859] | – | 100 | IC50 (pIC50, Appendix A): 12.6 nM
70 | O=C(NCCC(F)(F)F)c1ccc2c(c1)N=C(c1ccc(Cl)cc1F)c1ccccc1S2 [drawing 667] | 6.31 | 100 | –
71 | O=C(NCCc1ccccc1)c1ccc2c(c1)N=C(c1ccccc1F)c1ccccc1S2 [drawing 600] | 50.1 | 98 | –
